Measurements taken from US9604925B2, “Class II HMG-CoA reductase inhibitors and methods of use” (Purdue Research Foundation, priority 2012, dated 2017).
In brackets after ≈: the same amount, converted by molar mass. Marks after values point to notes of the source that are not given here.

Columns and labels:
S. aureus HMGR = S. aureus HMGR (Staphylococcus aureus, UniProt Q9FD86); experiment: biochemical
E. faecalis II-HMGR = E. faecalis II-HMGR (Enterococcus faecalis, UniProt Q9FD70); experiment: biochemical
MRSA = experiment: Time-kill assay against MRSA in MHB
[1] = test system: C. elegans infected with MRSA; experiment: Treatment of C. elegans infected with MRSA; conditions: MRSA-infected worms, 100 μM; for Log CFU/worm: 16 hours treatment; for Log Reduction: versus DMSO control
[2] = test system: Staphylococcus aureus ATCC 6538 adherent organisms (biofilm); experiment: MIC/MBC in adherent-cell biofilm of S. aureus ATCC 6538; assay type: cell-based; conditions: for Adherent organisms (biofilm) MIC^b: S. aureus ATCC 6538, 20 h; for Adherent organisms (biofilm) MBC^b: S. aureus ATCC 6538, regrowth 20 h in antibiotic-free MHB
Description: An adherent biofilm for susceptibility testing was formed using a clinical isolate of Staphylococcus aureus (ATCC 6538). S. aureus biofilms were prepared in a tissue culture non-treated polystyrene 96-well plate (Corning) and washed with phosphate-buffered saline (PBS) to remove unbound bacteria. Subsequently, serial twofold dilutions of the compounds in MHB were added to wells containing adherent organisms. The polystyrene plates were incubated for 20 h at 37° C. The MIC was taken as the lowest drug concentration at which observable growth was inhibited.

Listeria monocytogenes = experiment: Screen and MIC/MBC against Listeria monocytogenes; assay type: cell-based; conditions: for inhibition of growth in initial screen: 100 μM; for Listeria monocytogenes MBC / Listeria monocytogenes MIC: MHB
[3] = test system: vancomycin intermediate Staphylococcus aureus (VISA) NRS1; experiment: MIC/MBC against clinical VISA isolate
Brucella abortus = assay type: cell-based; conditions: for inhibition of growth in initial screen: 100 μM; for Brucella abortus (single value, head does not say MIC or MBC): MHB
[4] = test system: C. elegans infected with VRE; experiment: Treatment of C. elegans infected with VRE; conditions: VRE-infected worms, 100 μM
J774A.1 cells = experiment: In vitro cell viability/cytotoxicity MTS assay; assay type: cell-based; conditions: 100 μM, 24 hours
Description: Cytotoxicity of the compounds was evaluated using J774A.1 cells (mitochondrial function) in the CellTiter 96® AQueous Non-Radioactive Cell Proliferation Assay (Promega). […] Formazan is measured by measuring the absorbance at 490 nm. Briefly, ˜2×10^4 J774A.1 cells suspended in 200 μL DMEM supplemented with 10% fetal bovine serum (FBS), L-glutamine, NaHCO3, pyridoxine-HCl, and […] glucose and preserved with 1% penicillin-streptomycin solution were seeded in 96-well plates and incubated at 37° C. in a 5% CO2 atmosphere. The cells were cultured for 24 hours (60% confluency) before the assays. The J774A.1 cells were further incubated with 100 μM of compounds (2f, […], 2j, and 2e) and DMSO as a control for 24 hours. The culture media was discarded, and the cells in each well were washed with PBS and re-suspended with 100 μL of cell culture media prior to addition of the assay reagent. The plates were incubated for 4 hours at 37° C. in a humidified 5% CO2 atmosphere. The absorbance at 490 nm was recorded using a 96-well Elisa plate reader (SoftMax ProInc., USA). Results were expressed as the percentage mean absorbance by cells upon incubation with various treatments (compounds 2f, 2j, 2i, and 2e) with respect to incubation with DMSO. The results are expressed as means from six measurements±SD.

[5] = test system: Candida albicans ATCC 18804; experiment: MIC/MFC against Candida albicans in YM broth; assay type: cell-based; conditions: yeast medium broth
Description: Antifungal activities of 22 HMG-CoA Reductase inhibitors were initially tested at 100 μM concentration against Candida albicans ATCC 18804.

Bacillus subtilis = experiment: Screen and MIC/MBC against Bacillus subtilis; assay type: cell-based; conditions: for inhibition of growth in initial screen: 100 μM; for Bacillus subtilis MBC / Bacillus subtilis MIC: MHB
[6] = test system: Bacillus anthracis Sterne strain (34F2); assay type: cell-based; conditions: for inhibition of growth in initial screen: 100 μM; for Bacillus anthracis MBC / Bacillus anthracis MIC: MHB
[7] = test system: Staphylococcus aureus ATCC 6538 planktonic organisms (not in biofilm); experiment: MIC/MBC against planktonic S. aureus ATCC 6538; assay type: cell-based
[8] = test system: methicillin-resistant Staphylococcus aureus (MRSA) ATCC 43300; experiment: MIC/MBC micro dilution against MRSA; conditions: for MRSA MBC: MRSA ATCC 43300, MHB, 20 hours, Table 2; for MBC / MIC: Staphylococcus aureus
[9] = test system: clinical methicillin-resistant Staphylococcus aureus (MRSA) isolates; experiment: MIC/MBC against clinical MRSA isolates
Bacillus cereus = experiment: Screen and MIC/MBC against Bacillus cereus; assay type: cell-based; conditions: for inhibition of growth in initial screen: 100 μM; for Bacillus cereus MBC / Bacillus cereus MIC: MHB
[10] = test system: vancomycin resistant Enterococcus faecalis (VRE) ATCC 51299; experiment: MIC/MBC micro dilution against VRE; conditions: VRE ATCC 51299, MHB, 20 hours

Sequence of S. aureus HMGR (Q9FD86 entry or part of it): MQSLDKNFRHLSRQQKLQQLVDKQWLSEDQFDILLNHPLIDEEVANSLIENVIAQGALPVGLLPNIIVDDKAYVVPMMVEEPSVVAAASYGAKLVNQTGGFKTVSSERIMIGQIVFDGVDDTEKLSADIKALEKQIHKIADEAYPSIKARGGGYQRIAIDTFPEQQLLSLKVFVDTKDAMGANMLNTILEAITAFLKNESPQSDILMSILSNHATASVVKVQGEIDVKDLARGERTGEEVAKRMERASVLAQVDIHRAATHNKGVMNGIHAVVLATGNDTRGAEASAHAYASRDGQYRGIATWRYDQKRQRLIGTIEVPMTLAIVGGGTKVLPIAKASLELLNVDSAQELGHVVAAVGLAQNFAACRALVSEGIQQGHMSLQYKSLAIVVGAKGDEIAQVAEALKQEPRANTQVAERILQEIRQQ

## CCCCc1ccc(NS(=O)(=O)c2ccc(O)c(C(=O)O)c2)cc1 [Compound 1, 5-[N-(4-butylphenyl)sulfamoyl]-2-hydroxybenzoic acid]
S. aureus HMGR
  IC50: 91 ± 5 µM
E. faecalis II-HMGR
  IC50: 5 µM

## CN[C@H](CC(C)C)C(=O)N[C@H]1C(=O)N[C@@H](CC(N)=O)C(=O)N[C@H]2C(=O)N[C@H]3C(=O)N[C@H](C(=O)N[C@H](C(=O)O)c4cc(O)cc(O)c4-c4cc3ccc4O)[C@H](O)c3ccc(c(Cl)c3)Oc3cc2cc(c3O[C@@H]2O[C@H](CO)[C@@H](O)[C@H](O)[C@H]2O[C@H]2C[C@](C)(N)[C@H](O)[C@H](C)O2)Oc2ccc(cc2Cl)[C@H]1O [Vancomycin, vancomycin, reference compound]
MRSA; 3× MIC
  time-kill of MRSA cells: failed to reduce the number of CFU by 3-log10 within a 10 hour window
[1]
  Log CFU/worm: 3.26 ± 0.20 Log CFU/worm
  Log Reduction: 1.78*
[2]
  Adherent organisms (biofilm) MIC^b: 2 µM
  Adherent organisms (biofilm) MBC^b: 8 µM

## CCCCCCCCCCc1ccc(NS(=O)(=O)c2ccc(O)c(C(=O)O)c2)cc1 [Compound 2f, 5-[N-(4-decylphenyl)sulfamoyl]-2-hydroxybenzoic acid]
Listeria monocytogenes
  inhibition of growth in initial screen: showed inhibition of growth
  Listeria monocytogenes MBC: > 128 µM
  Listeria monocytogenes MIC: 64 µM
[3]
  MBC: 4 µM (≈ 1.73 µg/mL)
  MIC: 4 µM (≈ 1.73 µg/mL)
Brucella abortus
  inhibition of growth in initial screen: showed inhibition of growth
  Brucella abortus (single value, head does not say MIC or MBC): 128 µM
S. aureus HMGR
  IC50: 7.2 µM
[4]; 16 hours treatment
  Log CFU/worm: 0.70 ± 0.37 Log CFU/worm
[4]; versus DMSO control
  Log Reduction: 4.20*
J774A.1 cells
  percentage mean absorbance at 490 nm (MTS) versus DMSO: no significant differences in percentage mean absorption
MRSA; 1× MIC or 2× MIC
  time-kill of MRSA cells: four hours are required to eliminate bacteria completely
MRSA; 3× MIC
  time-kill of MRSA cells: complete elimination of MRSA cells within a two-hour window
[5]
  Candida albicans MFC: 16/16
  Candida albicans MIC: 16/16
Bacillus subtilis
  inhibition of growth in initial screen: showed inhibition of growth
  Bacillus subtilis MBC: 16/16
  Bacillus subtilis MIC: 16/16
[6]
  inhibition of growth in initial screen: showed inhibition of growth
  Bacillus anthracis MBC: 16/16
  Bacillus anthracis MIC: 16/16
[7]
  Planktonic organisms (not in biofilm) MBC: 16 µM
  Planktonic organisms (not in biofilm) MIC: 16 µM
[8]
  MRSA MBC: 16/16
  MBC: 16 µM (≈ 6.94 µg/mL)
  MIC: 16 µM (≈ 6.94 µg/mL)
[1]
  Log CFU/worm: 2.33 ± 0.09 Log CFU/worm
  Log Reduction: 2.71*
[2]
  Adherent organisms (biofilm) MIC^b: 64 µM
  Adherent organisms (biofilm) MBC^b: 128 µM
[9]; MRSA / NRS123 / USA400
  MBC: 16 µM (≈ 6.94 µg/mL)
  MIC: 4 µM (≈ 1.73 µg/mL)
[9]; MRSA / NRS382 / USA100
  MBC: 8 µM (≈ 3.47 µg/mL)
  MIC: 8 µM (≈ 3.47 µg/mL)
[9]; MRSA / NRS383 / USA200
  MBC: 4 µM (≈ 1.73 µg/mL)
  MIC: 4 µM (≈ 1.73 µg/mL)
[9]; MRSA / NRS384 / USA300
  MBC: 8 µM (≈ 3.47 µg/mL)
  MIC: 4 µM (≈ 1.73 µg/mL)
[9]; MRSA / NRS385 / USA500
  MBC: 8 µM (≈ 3.47 µg/mL)
  MIC: 4 µM (≈ 1.73 µg/mL)
[9]; MRSA / NRS386 / USA700
  MBC: 8 µM (≈ 3.47 µg/mL)
  MIC: 4 µM (≈ 1.73 µg/mL)
[9]; MRSA / NRS387 / USA800
  MBC: 8 µM (≈ 3.47 µg/mL)
  MIC: 4 µM (≈ 1.73 µg/mL)
[9]; MRSA / NRS483
  MBC: 8 µM (≈ 3.47 µg/mL)
  MIC: 4 µM (≈ 1.73 µg/mL)
[9]; MRSA / NRS484
  MBC: 8 µM (≈ 3.47 µg/mL)
  MIC: 4 µM (≈ 1.73 µg/mL)
Bacillus cereus
  inhibition of growth in initial screen: showed inhibition of growth
  Bacillus cereus MBC: 16/16
  Bacillus cereus MIC: 16/16
[10]
  VRE MBC: 32/32

## CC(C)CCCCc1ccc(NS(=O)(=O)c2ccc(O)c(C(=O)O)c2)cc1 [Compound 2j, 2-hydroxy-5-[N-(4-(5-methylhexyl)phenyl)sulfamoyl]benzoic acid]
Listeria monocytogenes
  inhibition of growth in initial screen: showed inhibition of growth
  Listeria monocytogenes MBC: 128/>128
  Listeria monocytogenes MIC: 128/>128
[3]
  MBC: 16 µM (≈ 6.26 µg/mL)
  MIC: 16 µM (≈ 6.26 µg/mL)
Brucella abortus
  inhibition of growth in initial screen: showed inhibition of growth
  Brucella abortus (single value, head does not say MIC or MBC): 64 µM
S. aureus HMGR
  IC50: 22 µM
J774A.1 cells
  percentage mean absorbance at 490 nm (MTS) versus DMSO: no significant differences in percentage mean absorption
[5]
  Candida albicans MFC: 128/>128
  Candida albicans MIC: 128/>128
Bacillus subtilis
  inhibition of growth in initial screen: showed inhibition of growth
  Bacillus subtilis MBC: 32/32
  Bacillus subtilis MIC: 32/32
[6]
  inhibition of growth in initial screen: showed inhibition of growth
  Bacillus anthracis MBC: 32/32
  Bacillus anthracis MIC: 32/32
[7]
  Planktonic organisms (not in biofilm) MBC: 64 µM
  Planktonic organisms (not in biofilm) MIC: 64 µM
[8]
  MRSA MBC: 64/64
  MBC: 64 µM (≈ 25.1 µg/mL)
  MIC: 64 µM (≈ 25.1 µg/mL)
[2]
  Adherent organisms (biofilm) MIC^b: 128 µM
  Adherent organisms (biofilm) MBC^b: 128 µM
[9]; MRSA / NRS123 / USA400
  MBC: 32 µM (≈ 12.5 µg/mL)
  MIC: 16 µM (≈ 6.26 µg/mL)
[9]; MRSA / NRS382 / USA100
  MBC: 32 µM (≈ 12.5 µg/mL)
  MIC: 16 µM (≈ 6.26 µg/mL)
[9]; MRSA / NRS383 / USA200
  MBC: 32 µM (≈ 12.5 µg/mL)
  MIC: 16 µM (≈ 6.26 µg/mL)
[9]; MRSA / NRS384 / USA300
  MBC: 32 µM (≈ 12.5 µg/mL)
  MIC: 16 µM (≈ 6.26 µg/mL)
[9]; MRSA / NRS385 / USA500
  MBC: 16 µM (≈ 6.26 µg/mL)
  MIC: 16 µM (≈ 6.26 µg/mL)
[9]; MRSA / NRS386 / USA700
  MBC: 16 µM (≈ 6.26 µg/mL)
  MIC: 16 µM (≈ 6.26 µg/mL)
[9]; MRSA / NRS387 / USA800
  MBC: 32 µM (≈ 12.5 µg/mL)
  MIC: 16 µM (≈ 6.26 µg/mL)
[9]; MRSA / NRS483
  MBC: 32 µM (≈ 12.5 µg/mL)
  MIC: 16 µM (≈ 6.26 µg/mL)
[9]; MRSA / NRS484
  MBC: 32 µM (≈ 12.5 µg/mL)
  MIC: 16 µM (≈ 6.26 µg/mL)
Bacillus cereus
  inhibition of growth in initial screen: showed inhibition of growth
  Bacillus cereus MBC: 64/64
  Bacillus cereus MIC: 64/64
[10]
  VRE MBC: 128/128
